Experiments:
[1] = molecular target: T1, Amine oxidase [copper-containing] 3 (Homo sapiens, UniProt Q16853); test: Inhibition of human recombinant SSAO/VAP1 assessed as H2O2 production by Resorufin/Amplex Red assay
T1 sequence (Q16853 whole entry): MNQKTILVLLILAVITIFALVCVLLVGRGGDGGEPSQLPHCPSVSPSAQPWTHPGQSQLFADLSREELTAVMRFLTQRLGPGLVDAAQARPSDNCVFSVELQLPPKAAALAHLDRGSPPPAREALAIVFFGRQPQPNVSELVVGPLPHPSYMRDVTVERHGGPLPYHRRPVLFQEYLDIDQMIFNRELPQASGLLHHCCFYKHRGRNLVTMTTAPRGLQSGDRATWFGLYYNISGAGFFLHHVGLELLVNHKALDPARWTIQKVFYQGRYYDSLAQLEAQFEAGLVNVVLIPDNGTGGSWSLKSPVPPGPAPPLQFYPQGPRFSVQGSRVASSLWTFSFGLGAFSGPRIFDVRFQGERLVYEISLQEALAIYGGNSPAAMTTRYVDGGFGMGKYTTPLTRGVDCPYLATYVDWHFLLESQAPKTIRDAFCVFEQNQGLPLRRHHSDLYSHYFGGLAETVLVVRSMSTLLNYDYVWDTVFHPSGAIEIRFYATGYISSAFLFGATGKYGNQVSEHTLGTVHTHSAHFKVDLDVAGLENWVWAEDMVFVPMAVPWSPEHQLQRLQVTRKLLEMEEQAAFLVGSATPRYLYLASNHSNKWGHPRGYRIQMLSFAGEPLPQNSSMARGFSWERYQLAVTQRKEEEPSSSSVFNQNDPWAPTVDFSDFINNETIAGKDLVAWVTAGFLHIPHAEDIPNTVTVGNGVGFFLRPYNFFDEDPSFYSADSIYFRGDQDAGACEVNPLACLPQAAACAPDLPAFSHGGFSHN

[2] = molecular target: T2, Amine oxidase [flavin-containing] B (Homo sapiens, UniProt P27338); test: Inhibition of human recombinant MAO-B assessed as H2O2 production by Resorufin/Amplex Red assay
T2 sequence (P27338 whole entry): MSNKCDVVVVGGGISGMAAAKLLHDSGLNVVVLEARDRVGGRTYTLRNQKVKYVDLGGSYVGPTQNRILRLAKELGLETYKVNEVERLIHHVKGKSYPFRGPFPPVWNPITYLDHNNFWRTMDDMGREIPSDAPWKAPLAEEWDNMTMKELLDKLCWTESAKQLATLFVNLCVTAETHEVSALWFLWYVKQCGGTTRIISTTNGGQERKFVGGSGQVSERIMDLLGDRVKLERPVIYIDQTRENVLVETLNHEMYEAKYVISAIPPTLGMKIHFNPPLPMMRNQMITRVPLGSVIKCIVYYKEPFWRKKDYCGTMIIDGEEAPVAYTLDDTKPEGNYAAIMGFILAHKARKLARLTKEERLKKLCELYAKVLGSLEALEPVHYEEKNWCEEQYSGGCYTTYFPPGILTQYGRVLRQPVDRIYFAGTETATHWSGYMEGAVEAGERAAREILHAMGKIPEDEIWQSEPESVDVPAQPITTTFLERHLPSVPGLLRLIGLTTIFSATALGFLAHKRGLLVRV

[3] = molecular target: T3, Amine oxidase [flavin-containing] A (Homo sapiens, UniProt P21397); test: Inhibition of human recombinant MAO-A assessed as H2O2 production by Resorufin/Amplex Red assay
T3 sequence (P21397 whole entry): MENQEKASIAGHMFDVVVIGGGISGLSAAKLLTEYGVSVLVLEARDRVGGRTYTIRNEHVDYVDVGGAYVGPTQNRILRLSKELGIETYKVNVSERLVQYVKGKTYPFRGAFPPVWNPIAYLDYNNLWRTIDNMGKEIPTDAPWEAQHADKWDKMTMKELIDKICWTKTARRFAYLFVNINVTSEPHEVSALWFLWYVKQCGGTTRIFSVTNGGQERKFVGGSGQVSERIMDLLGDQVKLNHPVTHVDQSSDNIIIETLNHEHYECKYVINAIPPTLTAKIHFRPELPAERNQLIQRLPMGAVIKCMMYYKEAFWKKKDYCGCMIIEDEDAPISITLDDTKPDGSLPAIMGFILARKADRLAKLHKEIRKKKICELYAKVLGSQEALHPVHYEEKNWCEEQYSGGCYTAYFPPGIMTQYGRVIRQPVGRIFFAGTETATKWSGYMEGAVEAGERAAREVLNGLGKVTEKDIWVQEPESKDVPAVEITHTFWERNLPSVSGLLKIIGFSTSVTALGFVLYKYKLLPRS

[4] = molecular target: recombinant human DAO (diamine oxidase) (Homo sapiens, UniProt P19801); test: Inhibition of human DAO measuring H2O2 production by Resorufin/Amplex Red assay
[5] = molecular target: T4, Amine oxidase [copper-containing] 3 (Mus musculus, UniProt O70423); test: Inhibition of SSAO/VAP1 in mouse adipocytes measuring H2O2 production by Resorufin/Amplex Red assay; format: cell-based
T4 sequence (O70423 whole entry): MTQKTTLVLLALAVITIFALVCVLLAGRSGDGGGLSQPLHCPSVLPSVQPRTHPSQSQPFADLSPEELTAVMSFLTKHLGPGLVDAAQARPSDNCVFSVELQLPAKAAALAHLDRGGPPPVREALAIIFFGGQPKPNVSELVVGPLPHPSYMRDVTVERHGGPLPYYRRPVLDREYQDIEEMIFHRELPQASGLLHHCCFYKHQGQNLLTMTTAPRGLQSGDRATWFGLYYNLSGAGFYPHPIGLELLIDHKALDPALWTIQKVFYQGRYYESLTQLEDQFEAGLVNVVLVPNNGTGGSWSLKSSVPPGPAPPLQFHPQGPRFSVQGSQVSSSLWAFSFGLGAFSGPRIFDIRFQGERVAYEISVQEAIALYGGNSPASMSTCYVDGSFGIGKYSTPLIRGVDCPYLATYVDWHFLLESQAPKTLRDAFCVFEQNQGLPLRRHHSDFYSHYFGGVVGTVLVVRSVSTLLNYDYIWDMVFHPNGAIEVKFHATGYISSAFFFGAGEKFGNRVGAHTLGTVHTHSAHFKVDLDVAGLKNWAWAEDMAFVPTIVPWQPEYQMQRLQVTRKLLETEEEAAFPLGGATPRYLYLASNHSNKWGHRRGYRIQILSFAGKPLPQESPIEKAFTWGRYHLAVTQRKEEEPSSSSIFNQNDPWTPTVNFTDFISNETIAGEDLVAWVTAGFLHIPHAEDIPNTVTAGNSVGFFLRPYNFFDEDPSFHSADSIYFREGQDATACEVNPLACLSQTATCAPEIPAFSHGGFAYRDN

[6] = molecular target: T1, Amine oxidase [copper-containing] 3; test: Inhibition of human SSAO/VAP1 measuring H2O2 production by Kitz and Wilson plot analysis
Salmonella typhimurium = test: Mutagenic activity in Salmonella typhimurium by Ames test; format: toxicity, organism-based; details: salmonella enterica subsp. enterica serovar typhimurium
[7] = Inhibition of CYP450; format: ADME
[8] = Oral bioavailability in rat; format: ADME, organism-based; details: in vivo
[9] = Half life in po dosed rat; format: ADME, organism-based; details: in vivo
Mus musculus = test: Inhibition of SSAO/VAP1 in po dosed mouse gonadal adipose tissue after 6 hrs; format: functional, organism-based
Rattus norvegicus = test: Inhibition of SSAO/VAP1 in po dosed rat gonadal adipose tissue after 6 hrs; format: functional, organism-based
[10] = molecular target: T5, Amine oxidase [copper-containing] 2 (Homo sapiens, UniProt O75106); test: Inhibition of human AOC2
T5 sequence (O75106 whole entry): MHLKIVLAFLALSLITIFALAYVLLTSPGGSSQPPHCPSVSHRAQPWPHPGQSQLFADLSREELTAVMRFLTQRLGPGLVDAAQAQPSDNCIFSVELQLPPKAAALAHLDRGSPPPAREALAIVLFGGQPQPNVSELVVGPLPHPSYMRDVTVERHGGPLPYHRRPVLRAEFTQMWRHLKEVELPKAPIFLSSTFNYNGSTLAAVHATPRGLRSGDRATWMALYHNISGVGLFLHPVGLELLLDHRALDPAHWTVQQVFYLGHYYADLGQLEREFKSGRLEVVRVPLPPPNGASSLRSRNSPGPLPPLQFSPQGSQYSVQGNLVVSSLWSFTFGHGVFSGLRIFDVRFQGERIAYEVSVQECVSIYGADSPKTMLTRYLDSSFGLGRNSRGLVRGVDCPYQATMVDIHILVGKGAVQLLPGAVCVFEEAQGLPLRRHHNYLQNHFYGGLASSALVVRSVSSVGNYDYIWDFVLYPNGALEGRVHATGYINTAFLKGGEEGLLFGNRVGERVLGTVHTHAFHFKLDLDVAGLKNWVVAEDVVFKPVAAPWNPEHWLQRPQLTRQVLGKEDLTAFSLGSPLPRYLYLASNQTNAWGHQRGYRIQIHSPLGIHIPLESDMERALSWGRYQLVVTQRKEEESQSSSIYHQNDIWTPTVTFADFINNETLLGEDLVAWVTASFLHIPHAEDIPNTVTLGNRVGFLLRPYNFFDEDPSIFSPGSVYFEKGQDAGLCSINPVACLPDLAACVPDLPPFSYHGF

| Compound | IC50 [1] | IC50 [2] | IC50 [3] | other results |
| --- | --- | --- | --- | --- |
| CN(Cc1ccccc1)C(=O)c1ccc(OC/C(F)=C\CN)cc1 | 260 nM | 2210 nM | – | – |
| CC(NC(=O)c1ccc(OC/C(F)=C\CN)cc1)c1ccccc1 (racemic) | 40 nM | 2980 nM | – | – |
| NCC=CCOc1ccccc1 [listing 1 of 2 here] | > 100000 nM | – | – | – |
| NC/C=C(/F)COc1ccccc1 | 290 nM | 180 nM | > 30000 nM | – |
| NC/C(=C/F)CCc1ccc(F)cc1 [MOFEGILINE] | 20 nM | 10 nM | 1780 nM | IC50 [4]: > 10000 nM; IC50 [5]: 10 nM; Ki [6]: 1610 nM |
| NC/C=C(\F)COc1ccccc1 | 20000 nM | – | – | – |
| NC/C=C(/F)COc1ccc(C(F)(F)F)cc1 | 40 nM | 130 nM | – | – |
| NC/C=C(/F)COc1ccc(C(=O)N2CCCC2)cc1 | 140 nM | 11000 nM | – | – |
| NC/C=C(/F)COc1ccc(C(=O)NC2CCCC2)cc1 | 20 nM | 1640 nM | > 30000 nM | IC50 [4]: > 30000 nM; IC50 [5]: 530 nM |
| C[C@H](NC(=O)c1ccc(OC/C(F)=C\CN)cc1)c1ccccc1 | 40 nM | 6430 nM | > 30000 nM | IC50 [4]: 74100 nM; IC50 [5]: 130 nM |
| NC/C=C(/F)COc1ccc([N+](=O)[O-])cc1 | 70 nM | 10 nM | – | – |
| NC/C=C(/F)COc1ccc(F)c(F)c1 | 190 nM | 90 nM | – | – |
| C[C@@H](NC(=O)c1ccc(OC/C(F)=C\CN)cc1)c1ccccc1 | 30 nM | 1610 nM | > 30000 nM | IC50 [4]: 2460 nM |
| CSc1ccc(OC/C(F)=C\CN)cc1 | 20 nM | 160 nM | – | – |
| CN(C)C(=O)c1ccc(OC/C(F)=C\CN)cc1 | 370 nM | 19000 nM | – | – |
| NC/C=C(/F)COc1ccc(C(N)=O)cc1 | 1070 nM | > 30000 nM | > 30000 nM | – |
| NC/C=C(/F)COc1ccc(C(=O)NCc2ccccc2)cc1 | 80 nM | 620 nM | – | – |
| NC/C=C(/F)COc1cccc(Cl)c1 | 250 nM | 30 nM | – | – |
| NCC=CCOc1ccccc1 [listing 2 of 2 here] | 82000 nM | – | – | – |
| NC/C=C(/F)COc1cccc(C(F)(F)F)c1 | 150 nM | 30 nM | > 10000 nM | – |
| COc1ccc(OC/C(F)=C\CN)cc1 | 160 nM | 310 nM | – | – |
| CC(C)(C)c1ccc(OC/C(F)=C\CN)cc1 | 210 nM | 6400 nM | > 30000 nM | – |
| NC/C=C(/F)COc1ccc(OC(F)(F)F)cc1 | 180 nM | 70 nM | – | – |
| NC/C=C(/F)COc1ccc(C(=O)NC2CCCCC2)cc1 | 10 nM | 1120 nM | > 30000 nM | IC50 [4]: 26100 nM; IC50 [5]: 150 nM; Ki [6]: 1640 nM; Activity (Salmonella typhimurium): Non-toxic; inhibition (INH) [7]: Not Active; bioavailability [8]: 62%; half-life [9]: 1.62 h; EC50 (Mus musculus): 10 mg/kg; EC50 (Rattus norvegicus): 10 mg/kg; IC50 [10]: > 10000 nM |
| NC/C=C(/F)COc1ccc(Oc2ccccc2)cc1 | 240 nM | 450 nM | – | – |

— ChEMBL document CHEMBL2029323, “The discovery and development of selective 3-fluoro-4-aryloxyallylamine inhibitors of the amine oxidase activity of semicarbazide-sensitive amine oxidase/vascular adhesion protein-1 (SSAO/VAP-1)” (Bioorg Med Chem Lett, 2012)
